In US7022315B2, “Administration of a thiol-based chemoprotectant compound” (Oregon Health & Science University, priority 2000, dated 2006):
≈ marks a conversion by molar mass, not a printed value. Read-outs that look alike come from different tables or passages of the source.

Key:
[1] = system: B.5 LX-1 cells; assay: cells; conditions: for EC50: Homo sapiens
Protocol: FIGS. 4A and 4B show cytoenhancement and chemoprotection. […] Cytotoxicity was assessed in cultured LX-1 SCLC cells, 1×10^4 cells per well in 96 well plates, using the WST colorometric assay. BSO cytoenhancement consisted of preincubation at 100 μM BSO for 18 hours. The chemoprotective agent was added immediately after chemotherapy. The experimental conditions were dose/responses for chemotherapy (carboplatin or etoposide phosphate) alone (m), BSO cytoenhancement ( ? ), N-acetylcysteine rescue, (1000 μg/ml N-acetylcysteine, n), or BSO cytoenhancement and N-acetylcysteine rescue (u). Data are expressed as the percentage of live cells compared to untreated control samples without chemotherapy and each point represents the mean±standard deviation of 4 wells.
The effects of BSO cytoenhancement and thiol chemoprotection on the dose/response relationships for cytotoxicity of the alkylating chemotherapeutics were evaluated in the B.5 LX-1 cells. BSO cytoenhancement consisted of preincubation with 100 μM BSO for about 18–24 hours prior to addition of chemotherapy, and rescue consisted of 1000–2000 μg/ml of thiol chemoprotectant added immediately after chemotherapy.
Cytoenhancement and chemoprotection against non-alkylating chemotherapeutic agents was also evaluated.
Half-maximal cytotoxic concentrations (EC50) are expressed as μg/ml. Each EC50 measurement comprised 6 concentrations with 4 wells per concentration, and each dose response was performed in triplicate for each chemotherapeutic agent. Data are reported as the mean±pooled standard deviation for three independent experiments. P values are shown for the reduction in EC50 by BSO treatment (*=P<0.05, **=P<0.01, ***=P<0.001).

[2] = system: B.5 LX-1 cells; assay: In situ TUNEL staining for DNA fragmentation; type: cell-based
Protocol: (§1) FIGS. 7A and 7B show the effect of cytoenhancement and chemoprotection on apoptosis. […] Apoptosis was assessed in cultured LX-1 SCLC cells pretreated for 18 hours with or without 100 μM BSO. The experimental conditions were no addition (open bars), melphalan (10 μg/ml, striped bars) or melphalan (10 μg/ml) plus N-acetylcysteine (1000 μg/ml) (cross hatched bars) for 20 h prior to harvest. Caspase-2 activity is expressed as percentage activity in untreated control samples (mean±standard deviation, n=3). TUNEL staining is expressed as the percentage of cells showing positive staining.
(§2) Apoptosis was evaluated by measuring Caspase-2 enzymatic activity and by in situ TUNEL staining. […] The increase in caspase activity was variable between experiments and ranged from 50–100% at 7–8 h to 250–600% at 20–24 h after treatment with melphalan. […] In the experiment shown in FIG. 7B, TUNEL staining after melphalan treatment was positive in 29 of 3643 cells, compared to 7 of 4395 cells in the untreated control, and BSO treatment prior to melphalan increased the positive staining to 800 of 1699 cells. […] In both assays, activity was maximal with low doses of melphalan, or with a 1 hour pulse treatment with the doses used in the cytotoxicity assays.

[3] = system: Caspase-2 activity in B.5 LX-1 cells; assay: Caspase-2 enzymatic activity (apoptosis); type: cell-based; conditions: for increase in caspase activity: variable between experiments
Protocol: as §1, §2
Samples of the cells used in the caspase and TUNEL assays were also evaluated for membrane permeability by trypan blue exclusion.

[4] = system: LX-1 SCLC cells; assay: cells; conditions: for Chemoprotective agent EC50 / EC50: average ± pooled sd of two experiments
Protocol: Cytotoxicity was assessed in cultured LX-1 SCLC cells, 1×10^4 cells per well in 96 well plates, using the WST colorometric assay. […] Chemoprotectant was added at the indicated concentration of N-acetylcysteine shown in FIG. 3A or D-methionine shown in FIG. 3B either alone (n) or immediately following chemotherapy. Data are expressed as the percentage of live cells compared to untreated control samples (without chemotherapy) and each point represents the mean±standard deviation of 4 wells.
The dose/response for rescue from chemotherapy cytotoxicity was evaluated for four different small molecular weight sulfur containing chemoprotectants.
Chemotherapy agents were fixed at the 90% lethal dose for each agent. Each EC50 measurement comprised 6 concentrations with 4 wells per concentration, and each dose response was performed twice for each protectant. EC50 concentrations, in μg/ml are reported as the average±pooled standard deviation for two independent experiments.

[5] = system: cultured tumor cells; assay: Paclitaxel cytotoxicity with BSO and NAC (WST); type: cell-based
[6] = system: LX-1 SCLC cells
Protocol: Chemotherapy cytotoxicity was assessed in cultured LX-1 SCLC cells (1×10^4 cells/well in 96 well plates) using the WST colorometric assay. […] Cells then received either no protectant (open bars), or sodium thiosulfate, 2000 μg/ml, added immediately (striped bars), 2 hours (black bars) or 4 hours (cross hatched bars) after chemotherapy. Data are expressed as the percentage of live cells compared to control samples (without chemotherapy) and each point represents the mean±standard deviation of 4 wells.
The thiol chemoprotectants were added either concurrently with chemotherapy or up to 8 hours after chemotherapy.

[7] = system: rats; assay: Protection against chemotherapy-induced myelosuppression, nadir blood counts; type: in vivo, rat; conditions: STS alone; data not shown
Protocol: FIGS. 10A–10D show the results of tests on chemoprotection for chemotherapy-induced myelosuppression. Rats received tri-drug chemotherapy (Carboplatin 200 mg/m2, etoposide phosphate 100 mg/m2, melphalan 10 mg/m2), with (triangles, squares) or without (circles) chemoprotection. Blood counts were determined prior to chemotherapy, at the blood nadir (6 days), and in the recovery phase (9 days after treatment). Chemoprotection was with NAC (1200 mg/kg) administered via aortic infusion 30 min prior to chemotherapy (triangles) or NAC prior to chemotherapy and STS (8 g/m2) immediately after chemotherapy (squares). In FIG. 10B and FIG. 10D animals received BSO (10 mg/kg i.p.×3 d) prior to treatment with chemotherapy. […] Significant difference from the no protectant groups were determined by Wilcoxon/Kruskal-Walliis rank sums tests (*p<0.05, **p<0.01).
Chemoprotection against chemotherapy-induced bone marrow toxicity was determined in BSO treated and untreated animals given i.a. carboplatin, etoposide phosphate, and melphalan. NAC with or without STS was administered either about 30 minutes prior to chemotherapy or immediately after chemotherapy, and was administered either i.v. or by aortic infusion.

[8] = cited from earlier work
[9] = system: GM294 human fibroblasts; assay: Cytoenhancement and chemoprotection in fibroblasts, WST assay; type: cell-based
Protocol: Cytotoxicity was assessed in GM294 human fibroblasts, 1×10^4 cells per well in 96 well plates, using the WST colorometric assay. […] Data are expressed as the percentage of live cells compared to control samples (without chemotherapy) and each point represents the mean±s.d. of 4 wells.

[10] = read-out: Chemoprotective agent EC50, protection against carboplatin 200 μg/ml (about 90% lethal dose)
[11] = read-out: Chemoprotective agent EC50, protection against cisplatin 15 μg/ml (about 90% lethal dose)

## COc1cccc2c1C(=O)c1c(O)c3c(c(O)c1C2=O)C[C@@](O)(C(=O)CO)C[C@@H]3O[C@H]1C[C@H](N)[C@H](O)[C@H](C)O1 [doxorubicin]
[1]
  BSO enhancement or N-acetylcysteine protection of the agent's cytotoxicity: no enhancement or protection

## N[C@@H](Cc1ccc(N(CCCl)CCCl)cc1)C(=O)O [Melphalan, melphalan]
[1]
  reduction of EC50 for cytotoxicity by BSO: 53%
[1]; LX-1, read-out: Chemotherapy EC50 (cytotoxicity), + BSO (100 μM preincubation 18–24 hours), mean ± pooled sd of three experiments
  EC50: 6.4 ± 0.6 mg/L
[1]; LX-1, read-out: Chemotherapy EC50 (cytotoxicity), Without BSO, mean ± pooled sd of three experiments
  EC50: 13.8 ± 1.8 mg/L (≈ 45.2 µM)
[2]; BSO treatment prior to melphalan
  TUNEL staining positive cells: 800 of 1699
[2]; melphalan treatment without BSO
  TUNEL staining positive cells: 29 of 3643
[3]; 7–8 h after treatment
  increase in caspase activity: 50–100%
[3]; 20–24 h after treatment
  increase in caspase activity: 250–600%

## CCOC(=O)CNC(=O)[C@H](CS)NC(=O)CC[C@H](N)C(=O)O [Glutathione ethyl ester]
[4]; on a μg/ml basis
  relative effectiveness among the thiol agents tested: least effective
[4]; protection against carboplatin 200 μg/ml (about 90% lethal dose)
  Chemoprotective agent EC50: 995 ± 48 mg/L
[4]; protection against cisplatin 15 μg/ml (about 90% lethal dose)
  Chemoprotective agent EC50: 530 ± 30 mg/L
[4]; protection against melphalan 20 μg/ml (about 90% lethal dose)
  Chemoprotective agent EC50: 303 ± 124 mg/L

## N.N.O=C([O-])C1(C(=O)[O-])CCC1.[Pt+2] [Carboplatin, carboplatin]
[1]; 100 μM BSO preincubation
  reduction of EC50 for cytotoxicity by BSO: 48%
[1]; Without BSO, mean ± pooled sd of three experiments
  Chemotherapy EC50 (cytotoxicity): 103 ± 21 mg/L

## CC(=O)O[C@H]1C(=O)[C@@]2(C)[C@H]([C@H](OC(=O)c3ccccc3)[C@]3(O)C[C@H](OC(=O)[C@H](O)[C@@H](NC(=O)c4ccccc4)c4ccccc4)C(C)=C1C3(C)C)[C@]1(OC(C)=O)CO[C@@H]1C[C@@H]2O [paclitaxel]
[1]; not altered by BSO
  growth inhibitory dose: approximately 10 nM
[5]; cells pretreated with BSO
  dose completely cytotoxic in vitro: ≥ 5 µM
[5]; paclitaxel dose 5 (unit not given)
  live cells (WST fluorescence): 1.274 +/− .071
[5]; paclitaxel dose 20 (unit not given)
  live cells (WST fluorescence): 0.771 +/− .056
[5]; without BSO
  concentration at which it begins to be cytotoxic: 20 µM
  concentration at which it is completely toxic: 30 µM

## CSCC[C@@H](N)C(=O)O [D-methionine]
[6]; delayed for 2 hours after cisplatin
  reduction of protection against cisplatin compared to simultaneous addition: 41.2±10.2%
[6]; delayed to 4 hours after cisplatin
  reduction of protection against cisplatin compared to simultaneous addition: 66.1±4.5%
[6]; pretreatment for 30 min prior to cisplatin
  protection against cisplatin compared to simultaneous addition: did not increase the amount of protection
[4]; [10]
  EC50: 379 ± 123 mg/L (≈ 2540 µM)
[4]; [11]
  EC50: 140 ± 41 mg/L (≈ 938 µM)

## O=S(O)(O)=S [STS, sodium thiosulfate]
[6]; melphalan 20 μg/ml, protectant delayed (2 hours for STS)
  protection against melphalan cytotoxicity with delayed addition: chemoprotection was reduced
[6]; protectant delayed (up to 4 hours for STS)
  protection against platinum (carboplatin, cisplatin) cytotoxicity with delayed addition: still protective
[7]
  bone marrow protection: did not give consistent bone marrow protection
[8]; after a bolus injection
  plasma half life: about 17 minutes
[8]; i.v. administration
  brain levels: < 5 % of blood
[4]; [10]
  EC50: 442 ± 203 mg/L
[4]; [11]
  EC50: 86 ± 76 mg/L
[4]; read-out: Chemoprotective agent EC50, protection against melphalan 20 μg/ml (about 90% lethal dose)
  EC50: 110 ± 78 mg/L

## CCCCS(=N)(=O)CCC(N)C(=O)O (stereo not drawn) [BSO, buthionine sulfoximine]
[9]; 100 μM for 18 hours pretreatment
  effect on toxicity of melphalan, cisplatin and carboplatin: enhanced the toxicity of all three alkylators
[3]
  effect on cisplatin- or carboplatin-induced caspase activity: No significant amplification of caspase activity
[3]; BSO pretreatment, low melphalan concentrations
  effect on melphalan-induced Caspase-2 activity: amplified

## CN(Cc1cnc2nc(N)nc(N)c2n1)c1ccc(C(=O)N[C@@H](CCC(=O)O)C(=O)O)cc1 [methotrexate]
[1]
  BSO enhancement or N-acetylcysteine protection of the agent's cytotoxicity: no enhancement or protection

## COc1cc([C@@H]2c3cc4c(cc3[C@@H](O[C@@H]3O[C@@H]5CO[C@@H](C)O[C@H]5[C@H](O)[C@H]3O)[C@H]3COC(=O)[C@H]23)OCO4)cc(OC)c1OP(=O)(O)O [etoposide phosphate]
[1]
  BSO enhancement or N-acetylcysteine protection of the agent's cytotoxicity: BSO did not increase the cytotoxicity of etoposide phosphate, nor did N-acetylcysteine decrease the cytotoxicity
[9]
  effect of BSO and N-acetylcysteine on the agent's cytotoxicity: neither BSO cytoenhancement nor N-acetylcysteine chemoprotection affected the cytotoxicity
